Experiment: in vitro
Conditions: human, hela cells, % viability

Compound	viability at 28.5 h, 10 µM [%]
O=[N+]([O-])c1ccc(CN2CCC(Oc3cncc(OCC4COc5ccccc5O4)n3)C2)cc1 (stereo not shown) [CBK084369]	99.3
Fc1ccc(CCN2CCC(Oc3cncc(OCC4COc5ccccc5O4)n3)C2)cc1 (stereo not shown) [CBK084383]	99.8
CCOC(=O)CN1CCC(Oc2cncc(Oc3ccc(OC)c(OC)c3)n2)C1 (stereo not shown) [CBK084405]	91.3
COc1ccc(Oc2cncc(OC3CCN(CC4CCCCC4)C3)n2)cc1OC (stereo not shown) [CBK084413]	96.4
CCN(CC)C(=O)CN1CCC(Oc2cncc(OCc3ccc(Cl)c(Cl)c3)n2)C1 (stereo not shown) [CBK084431]	98.2
CCOC(=O)CN1CCC(Oc2cncc(OCc3ccc(Cl)c(Cl)c3)n2)C1 (stereo not shown) [CBK084432]	91.7
Clc1ccc(CN2CCC(Oc3cncc(OCc4cccnc4)n3)C2)cc1 (stereo not shown) [CBK084451]	104
O=[N+]([O-])c1ccc(CN2CCC(Oc3cncc(OCc4cccnc4)n3)C2)cc1 (stereo not shown) [CBK084456]	91.6
c1cncc(COc2cncc(OC3CCN(Cc4ccc5c(c4)OCO5)C3)n2)c1 (stereo not shown) [CBK084458]	88.9
CCOC(=O)CN1CCC(Oc2cncc(OCc3cccnc3)n2)C1 (stereo not shown) [CBK084462]	99.4
c1cncc(COc2cncc(OC3CCN(CCN4CCOCC4)C3)n2)c1 (stereo not shown) [CBK084463]	99.7
OCCCN1CCC(Oc2cncc(OCc3cccnc3)n2)C1 (stereo not shown) [CBK084465]	91.7
N#CCCCN1CCC(Oc2cncc(OCc3cccnc3)n2)C1 (stereo not shown) [CBK084466]	105
Fc1ccc(CCN2CCC(Oc3cncc(OCc4cccnc4)n3)C2)cc1 (stereo not shown) [CBK084469]	97.8
Fc1ccccc1CN1CCC(Oc2cncc(OCCN3CCOCC3)n2)C1 (stereo not shown) [CBK084479]	94.9
Clc1ccc(CN2CCC(Oc3cncc(OCCN4CCOCC4)n3)C2)cc1 (stereo not shown) [CBK084480]	90.9
O=[N+]([O-])c1ccc(CN2CCC(Oc3cncc(OCCN4CCOCC4)n3)C2)cc1 (stereo not shown) [CBK084485]	95.2
c1cc2c(cc1CN1CCC(Oc3cncc(OCCN4CCOCC4)n3)C1)OCO2 (stereo not shown) [CBK084487]	96.7
NC(=O)CN1CCC(Oc2cncc(OCCN3CCOCC3)n2)C1 (stereo not shown) [CBK084488]	111
Cc1cccc(C)c1NC(=O)CN1CCC(Oc2cncc(OCCN3CCOCC3)n2)C1 (stereo not shown) [CBK084489]	95.5
CCN(CC)C(=O)CN1CCC(Oc2cncc(OCCN3CCOCC3)n2)C1 (stereo not shown) [CBK084490]	101
CCOC(=O)CN1CCC(Oc2cncc(OCCN3CCOCC3)n2)C1 (stereo not shown) [CBK084491]	89.3

Compound	viability at 28.5 h, 10 µM [%]
c1ccc(OCCN2CCC(Oc3cncc(OCCN4CCOCC4)n3)C2)cc1 (stereo not shown) [CBK084499]	113
c1ccc2c(CCN3CCC(Oc4cncc(OCCN5CCOCC5)n4)C3)c[nH]c2c1 (stereo not shown) [CBK084500]	100
c1ccc2cc(CCN3CCC(Oc4cncc(OCCN5CCOCC5)n4)C3)ccc2c1 (stereo not shown) [CBK084503]	92.7
Nc1ncc(-c2ccc(C(=O)O)cc2)nc1-c1ccc(C(=O)N2CCOCC2)cc1 [CBK084518]	90.8
CC(C)(C)c1ccc(-c2cnc(N)c(-c3ccc(C(=O)N4CCOCC4)cc3)n2)cc1 [CBK084543A]	98.2
COc1ccc(Br)c(C(=O)Nc2[nH]nc(O)c2Cc2c(Cl)cccc2Cl)c1 [CBK084554]	111
CC[C@@H]1CCCCN1C(=O)c1ccc(Cl)c(C)c1 [CBK084565]	91.6
COc1ccc2[nH]c3c(c2c1)CCN(CC(C)O)C31CCN(CCOc2ccccc2)C1 (stereo not shown) [CBK084612T]	73
COc1ccc([C@H](NC(=O)C2CCN(C(=O)OCc3ccccc3)CC2)c2ccccc2C)cn1 [CBK084639]	92.9
O=C(CN(C(=O)CNC(=O)c1cccs1)c1cccc(C(F)(F)F)c1)NC1CCCCC1 [CBK084697]	94.5
O=C(NCC(=O)N(c1cccc(C(F)(F)F)c1)C(C(=O)NCc1ccco1)c1ccccc1F)c1ccco1 (stereo not shown) [CBK084740]	96
COc1ccc(Cn2nnnc2C(CC(C)C)N2CCC(C(N)=O)CC2)cc1 (stereo not shown) [CBK084783]	90
O=C(NC1CCCCC1)NC1CCN(Cc2nnnn2Cc2ccco2)CC1 [CBK085007]	100
CC(=O)Nc1ccc(NC2SC(=O)N(c3ccccc3)C2=O)cc1 (stereo not shown) [CBK085110]	88.4
Cc1cc(NS(=O)(=O)c2ccc(NC(=O)C(c3ccccc3)c3ccccc3)cc2)no1 [CBK085112]	94
O=C(NC(Cc1c[nH]c2ccccc12)C(=O)NC1CCCCC1)OCc1ccccc1 (stereo not shown) [CBK085144]	89
CCc1nnc(NS(=O)(=O)c2ccc(NCc3ccccc3O)cc2)s1 [CBK085149]	113
Cc1[nH]n(-c2nc3ccccc3o2)c(=O)c1Cc1c(Cl)cccc1Cl [CBK085382]	96.5
Fc1ccc2[nH]c3c(c2c1)CCNC31CCN(CCOc2ccccc2)C1 (stereo not shown) [CBK085404T]	98
Brc1cn2ccnc2c(N2CCCC2)n1 [CBK085449]	117
Cc1cc(COc2cc(N3CCCNCC3)ncn2)no1 [CBK085462]	95.4
c1nc(OCCN2CCOCC2)cc(N2CCCNCC2)n1 [CBK085466]	86.2

Compound	viability at 28.5 h, 10 µM [%]
c1ccc2c(c1)OCC(COc1nccc(N3CCCNCC3)n1)O2 (stereo not shown) [CBK085471]	89.8
Cc1nc2ccc(NC(=O)Nc3ccnc4cccnc34)cc2o1 [CBK085498]	90
CS(=O)(=O)Nc1ccc2cc(-c3cccc(C(F)(F)F)c3)cnc2n1 [CBK085671]	94.1
COc1ccc(-c2nc(NS(C)(=O)=O)cc3cccnc23)cc1C [CBK085677]	85.5
CS(=O)(=O)Nc1cc2cccnc2nc1-c1ccccc1 [CBK085689]	104
COc1cc(-c2nc3ncccc3cc2NS(C)(=O)=O)cc(OC)c1OC [CBK085697]	92.7
Nc1cc2ccccc2c(-c2ccncc2)n1 [CBK085708]	99.1
Nc1cc2ccccc2c(-c2cc(F)cc(F)c2)n1 [CBK085711]	97
Nc1cc2ccccc2c(-c2ccc(OC(F)(F)F)cc2)n1 [CBK085725]	99.4
CSc1ccc(-c2nc(NC(=O)C(C)C)cc3ccccc23)cc1 [CBK085735]	95.5
CC(C)C(=O)Nc1cc2ccccc2c(-c2cccc(C(F)(F)F)c2)n1 [CBK085738]	95.6
CS(=O)(=O)Nc1cc2ccccc2c(-c2ccncc2)n1 [CBK085746]	92
CS(=O)(=O)Nc1cc2ccccc2c(-c2ccsc2)n1 [CBK085748]	89.7
CS(=O)(=O)Nc1cc2ccccc2c(-c2cccc(C(F)(F)F)c2)n1 [CBK085754]	92.9
CS(=O)(=O)Nc1cc2ccccc2c(-c2ccc(OC(F)(F)F)cc2)n1 [CBK085757]	121
CCNc1cc2ccccc2c(-c2cccc(C(F)(F)F)c2)n1 [CBK085772]	101
CNC(=O)CCCc1[nH]nc(O)c1Cc1c(Cl)cccc1Cl [CBK085827]	89.4
Nc1cccc(Sc2ncccn2)c1 [CBK085844]	93.4
CC(=O)Nc1ccc(Sc2ccccn2)cc1 [CBK085853]	101
COc1nc(SC)nc2[nH]ccc12 [CBK085861]	95
Cc1nc2ccc(Br)cc2c(=O)n1Cc1cccs1 [CBK085890]	89.7
N#CCC(=O)Nc1ccc(F)c(Cl)c1 [CBK085905]	95.4

Compound	viability at 28.5 h, 10 µM [%]
CCCCN1C(=O)N(c2nnc(C(C)(C)C)s2)C(=O)C1c1ccc(Cl)c(Cl)c1 (stereo not shown) [CBK085921]	114
Cc1ccc(-c2nc3ccccc3[nH]2)cc1 [CBK085933]	89.9
Fc1c(CN2CCOCC2)cccc1CN1CCOCC1 [CBK085967]	97.6
O=C(Nc1ccccc1F)c1cc(Cl)sc1Cl [CBK085969]	93.3
CC(=O)c1nnn(-c2cc(Cl)ccc2Cl)c1C [CBK085973]	104
CC1CCN(C(=S)NC2CC3CCC2C3)CC1 (stereo not shown) [CBK085998]	91.3
CC(C)(C)OC(=O)N1CCC(CNS(=O)(=O)c2cccc3cccnc23)CC1 [CBK086017]	97.1
CC(C)(C)OC(=O)N1CCC(CNS(=O)(=O)c2cc(Cl)sc2Cl)CC1 [CBK086018]	114
N#Cc1ccc(NC(=O)Nc2ccccc2)cc1 [CBK086045]	87.8
O=C(Nc1ccc(Cl)cc1)Nc1ccc(OCC(O)CN2CCCCC2)cc1 (stereo not shown) [CBK086101]	99.4
N#Cc1cnn(-c2ccc(Cl)cc2Cl)c1N [CBK086125]	89.2
CSCC(CSC)OC(=O)Nc1ccc(Cl)cc1 [CBK086154]	93.9
O=C(O)CC1(CC(=O)N2CCN(C(c3ccccc3)c3ccccc3)CC2)CCCC1 [CBK086174]	98.7
O=C(CC1C(=O)NCCN1C(=O)Nc1ccc(OCc2ccccc2)cc1)Nc1ccc(F)cc1 (stereo not shown) [CBK086203]	113
CCCc1cnc(N2CCN(S(=O)(=O)c3ccc(NC(C)=O)cc3Cl)CC2)nc1 [CBK086208]	117
Clc1ccc(CNCc2cccnc2)cc1 [CBK086257C]	108
CSc1nc(O)nc(-c2ccccc2)n1 [CBK086310]	95.4
Cc1cc(C)c(NC(N)=O)c(C)c1 [CBK086399]	105
CCOC(=O)C1=C(C)NC(=O)NC1c1cccs1 (stereo not shown) [CBK086430]	78
O=C(CN1CCOCC1)Nc1ccc(Cl)cc1C(=O)c1ccccc1 [CBK086450]	95.9
CCSc1nc(N)cc(O)n1 [CBK086474]	90.5

Same assay, conditions: human, hela cells, % viability, bulk resorufin, single well

Compound	viability at 28.5 h, 10 µM [%]
CCOC(=O)N1CCC2(CC1)Oc1ccc(Cl)cc1O2 [CBK084590]	94.2
CCOC(=O)N1CCC2(CC1)Oc1ccc(-c3cccc4ncccc34)cc1O2 [CBK085454]	99.8
c1ccc(-c2ccc3c(c2)OC2(CCNCC2)O3)cc1 [CBK085501]	103
CN1C(=O)CC(c2ccccc2)Nc2ccccc21 (stereo not shown) [CBK086373C]	103
